Measurements published in paper PMC7984888, “Inhibitory Activity of Pyrroloisoxazolidine Derivatives against Chlamydia trachomatis” (BioMed Research International, 2021).

Legend:
Assay type in all cases: cell-based
[1] = test system: Chlamydia trachomatis serovar L2 (strain 434/Bu); test: Infectious progeny inhibition assay, C. trachomatis L2; conditions: Chlamydia trachomatis, HeLa, generation of infectious progeny EBs in HeLa cells, MOI 0.2, 36 hpi, 1 to 32 μM; read-out: IC50 (μM) Mean (95% confidence interval) Ct L2
Experimental: (§1) Chlamydia trachomatis serovars D (strain UW-3/CX) and L2 (strain 434/Bu) were purchased from ATCC. HeLa cells purchased from ATCC were routinely cultured in DMEM supplemented with 10% heat-inactivated FBS (Sigma-Aldrich) and 10 μg/mL gentamicin at 37°C in a humidified atmosphere of 5% and were used for chlamydial propagation and cell culture experiments. EBs were purified by Renografin density gradient and stored in sucrose-phosphate-glutamate (SPG) buffer at -80°C [20]. A mouse polyclonal anti-MoPn (C. muridarum strain Nigg II) antibody, which was produced in our laboratory and cross-reacting with C. trachomatis D and L2, was used as a primary antibody for both stains detection.
(§2) Cell monolayers seeded onto coverslips in a 24-well plate were infected with C. trachomatis at a multiplicity of infection (MOI) of 0.2 inclusion-forming units (IFU) per cell. Unless noted, individual compound was added into culture medium at indicated concentrations simultaneously at the time of inoculation. 0.5% DMSO was used as negative control and 11.25 μM tetracycline (Sigma-Aldrich) as positive control. For C. trachomatis D, an additional centrifugation (900 × g at room temperature for 1 h) was applied to facilitate the infection. At 36 hours postinfection (hpi), infected cells were fixed by precooled methanol and then subjected to sequential staining processed with a primary antibody and a FITC-conjugated secondary antibody. Evans blue was used as cytoplasm counterstain. Images were shot by an Olympus IX51 fluorescence microscope.
(§3) Cells monolayers seeded in 48-well plate were infected and treated with chemicals as above. After incubation for 36 hours, infected cells were washed twice, scraped off, and lysed by sonication to release the infectious progeny EBs. Then the lysates were used to reinfect fresh cell monolayers grown in 96-well plate following 1 : 10 serial dilution. The inclusion counts were obtained by immunofluorescence staining as above to calculate the number of infectious progeny EBs in each sample. Percent inhibition was calculated based on EB counts in compound-treated samples relative to DMSO-treated negative control.
(§4) Data from the three independent experiments were presented as mean ± standard deviations (SD) and were subjected to pairwise Student's t-tests. p < 0.05 and p < 0.01 are considered statistically significant and statistically highly significant, respectively. The IC50 values, defined as the concentration of compound at which the generation of infectious progeny EBs was reduced by 50% relative to negative control, were calculated by nonlinear regression from percent inhibition data using the GraphPad Prism 5 software, and presented as mean (95% confidence interval).

[2] = test system: Chlamydia trachomatis serovar D (strain UW-3/CX); test: Infectious progeny inhibition assay, C. trachomatis D; conditions: Chlamydia trachomatis, HeLa, generation of infectious progeny EBs in HeLa cells, MOI 0.2, 36 hpi, 1 to 32 μM; read-out: IC50 (μM) Mean (95% confidence interval) Ct D
Experimental: as §1, §2, §3, §4

WST-1 cell viability = conditions: human, uninfected HeLa cells, WST-1, relative to DMSO control as 100%
Experimental: Uninfected HeLa cells were cultured with 32 μM (the highest concentration used in antichlamydial analysis) of individual compound or 0.5% DMSO for 48 h. After 10 μL of WST-1 reagent was added, cells were incubated for an additional 1 h, and absorbance at 450 nm was recorded. The viability of compound-treated cells was calculated by the absorbance relative to that of DMSO control setting as 100% [22].

IC50 [1] [µM] | IC50 [2] [µM] | SMILES | viability at 48 h, 32 µM (WST-1 cell viability) [%]
> 32 | 23.5 | Cc1ccc(C2CC3C(c4ccccc4Br)N(c4ccccc4)OC3N2c2ccccc2)cc1 (stereo not drawn) [Compound 11] | 99.7
17.5 | 12.5 | O=[N+]([O-])c1ccc(C2CC3C(c4ccccc4Br)N(c4ccccc4)OC3N2c2ccccc2)cc1 (stereo not drawn) [Compound 12] | 104
> 32 | 16.3 | Cc1ccc(N2C(c3ccccc3)CC3C(c4ccccc4Br)N(c4ccccc4)OC32)cc1 (stereo not drawn) [Compound 13] | 95.7
16.8 | 16.3 | Brc1ccccc1C1C2CC(/C=C/c3ccccc3)N(c3ccccc3)C2ON1c1ccccc1 (stereo not drawn) [Compound 14] | 98
9.77 | 12.2 | O=[N+]([O-])c1ccc(C2CC3C(c4ccccc4Cl)N(c4ccccc4)OC3N2c2ccccc2)cc1 (stereo not drawn) [Compound 15] | 104
13.5 | 5.93 | Cc1ccc(C2CC3C(c4ccccc4)N(c4ccccc4)OC3N2c2ccc(C)cc2)cc1 (stereo not drawn) [Compound 16] | 96.5
> 32 | 27.6 | Brc1ccccc1C1C2CC(c3ccccc3Br)N(c3ccccc3)C2ON1c1ccccc1 (stereo not drawn) [Compound 17] | 114
> 32 | 21 | Fc1ccc(N2C(c3cccc4ccccc34)CC3C(c4ccccc4Br)N(c4ccccc4)OC32)cc1 (stereo not drawn) [Compound 18] | 106

The next lines start with the compound.

SMILES | IC50 [1] [µM] | IC50 [2] [µM] | viability at 48 h, 32 µM (WST-1 cell viability) [%]
Brc1ccc(C2C3CC(c4ccccc4)N(c4ccccc4)C3ON2c2ccccc2)cc1 (stereo not drawn) [Compound 3] | 8.67 | 20.9 | 99.9
COc1ccc(N2C(c3ccccc3)CC3C(c4ccccc4Br)N(c4ccccc4)OC32)cc1 (stereo not drawn) [Compound 4] | 11.2 | > 32 | 97.5
COc1ccc(N2C(c3ccccc3)CC3C(c4cccc(Br)c4)N(c4ccccc4)OC32)cc1 (stereo not drawn) [Compound 5] | 15.5 | > 32 | 95.2
COc1ccc(N2C(c3ccccc3)CC3C(c4ccc(Br)cc4)N(c4ccccc4)OC32)cc1 (stereo not drawn) [Compound 6] | 9.08 | 16.9 | ~90
Brc1ccccc1C1C2CC(c3ccccc3)N(c3ccccc3)C2ON1c1ccccc1 (stereo not drawn) [Compound 7] | 19.1 | > 32 | ~90
Brc1ccccc1C1c2ccccc3cccc2N2C(c4ccccc4)CC3C2ON1c1ccccc1 (stereo not drawn) [Compound 8] | 25.4 | 28.6 | 102
Fc1ccc(N2C(C3CCCCC3)CC3C(c4ccccc4Br)N(c4ccccc4)OC32)cc1 (stereo not drawn) [Compound 9] | > 32 | 19.6 | 96.5
Fc1ccc(N2C(c3cccs3)CC3C(c4ccccc4Br)N(c4ccccc4)OC32)cc1 (stereo not drawn) [Compound 10] | 17.4 | 15.4 | ~90
